Patent US7950396B2, “Treatment for otitis externa” (priority 2006, dated 2011)

Assays:
otitis externa [1] = experiment: Photodisinfection of otitis externa treatment site (Examples V to VII); format: in vivo
Experimental: A photosensitizing composition comprising of methylene blue at a concentration of about 0.1 wt % is applied to the otitis externa treatment site. Light at a wavelength range from about 650 nm to about 680 nm is applied to the photosensitizing composition located within the otitis externa treatment site for a period from about 6 minutes to about 10 minutes using a laser with power at about 80 mW. The otitis externa was ameliorated.
A photosensitizing composition comprising of methylene blue at a concentration range of from about 0.001 wt % to about 0.1 wt % is applied to the otitis externa treatment site. Light at a wavelength range from about 650 nm to about 680 nm is applied to the photosensitizing composition located within the treatment site for a period from about 1 minute to about 20 minutes using a laser with power at a range from about 50 mW to about 300 mW. The otitis externa was ameliorated.
A photosensitizing composition comprising of toluidine blue at a concentration range of from about 0.001% wt % to about 0.1 wt % is applied to the otitis externa treatment site. Light at a wavelength range from about 620 nm to about 650 nm is applied to the photosensitizing composition located within the otitis externa treatment site for a period from about 1 minute to about 20 minutes using a laser with power at a range from about 50 mW to about 300 mW. The otitis externa was ameliorated.
For Examples V to VII, it was shown that there is a general inverse relationship between (1) the photosensitizer concentration and (2) the photodisinfection treatment time and/or the amount of power required for the light source. For example, higher concentration of photosensitizer requires less treatment time and/or lower light source power. Conversely, lower concentration of photosensitizer requires longer treatment time and/or higher light source power. Also, less treatment time requires higher concentration of photosensitizer and/or higher light source power.

E. coli [2] = experiment: Photodisinfection of E. coli biofilms in vitro (methylene blue plus Periowave laser); format: cell-based, Escherichia coli
From the text: (§1) Photodisinfection treatments using methods contemplated by the present invention have been tested against MRSA, Escherichia coli (E. coli), and Enterococcus fecalis (E. fecalis) in vitro and reached high levels of disinfection in within seconds to one minute. Photosensitizing composition comprising of methylene blue at various concentrations ranging from about 0.005 wt % to 0.1 wt % was applied to biofilms of MRSA, E. coli and E. fecalis for about ten seconds. These biofilms were then illuminated by a laser light system at a wavelength of about 665 nm to about 675 nm for a period from about 0 seconds to about 60 seconds (e.g., accumulated energy level of about 0 J/cm^2 to about 9 J/cm^2). The laser light system used was the Periowave™ system which includes a low-intensity laser with power at about 240 mW and the optical probe described in PCT Patent Publication No. WO2006115761.

otitis externa [3] = experiment: Study on patients suffering otitis externa (photodisinfection, Periowave laser); format: in vivo, human
Experimental: A study was conducted on patients suffering otitis externa. During the study, a photosensitizing composition comprising of methylene blue at a concentration of about 0.01 wt % was applied using a cotton swab to the treatment site as shown in FIG. 37. Thereafter and referring to FIGS. 38-39, light at a wavelength range from about 665 nm to about 675 nm was applied to the photosensitizing composition located within the treatment site 64 for a period from about 3 minutes to about 5 minutes (3-5 repetitive one minute cycles) using the Periowave™ laser light system.

MRSA [4] = experiment: SEM evaluation of MRSA biofilms after photodisinfection; format: cell-based, Methicillin-resistant Staphylococcus aureus; settings: about 0.1 wt % methylene blue, about 10 s contact, 665-675 nm for about 30 seconds, Periowave laser
Experimental: (§2) Biofilms heavily colonized with one to four layers of MRSA organisms were contacted with a photosensitizing composition comprising methylene blue at a concentration of about 0.1 wt % for about 10 seconds and then illuminated at a wavelength of about 665 nm to about 675 nm for a period from about 30 seconds using the Periowave™ laser. Thereafter, these biofilms and the controlled MRSA biofilms (e.g., no photodisinfection treatment) were incubated overnight in 0.9 wt % saline and then fixed in 10 wt % Formalin for scanning electron microscope (SEM) evaluation.

MRSA [5] = experiment: Photodisinfection of MRSA biofilms in vitro (methylene blue plus Periowave laser); format: cell-based, Methicillin-resistant Staphylococcus aureus
From the text: as §1

E. fecalis = experiment: Photodisinfection of E. fecalis biofilms in vitro (methylene blue plus Periowave laser); format: cell-based, Enterococcus fecalis; settings: methylene blue and low power laser
From the text: as §1

E. coli [6] = experiment: SEM evaluation of E. coli biofilms after photodisinfection; format: cell-based, Escherichia coli; settings: about 0.1 wt % methylene blue, about 10 s contact, 665-675 nm for about 30 seconds, Periowave laser
Experimental: as §2, with “to three” for “to four”, “of Escherichia coli (E. coli)” for “of MRSA”, “controlled E. coli” for “controlled MRSA”, “incubated for three hours” for “incubated overnight”, “in 0.9%” for “in 0.9 wt %”, “in 10%” for “in 10 wt %”

[7] = at least 0.02 wt % methylene blue, about 10 s contact, laser 665-675 nm for at least 15 seconds (at least 2.25 J/cm^2), 240 mW
[8] = methylene blue and low power laser

SMILES	outcome of otitis externa (otitis externa [1]; about 0.001 to 0.1 wt %, 620-650 nm for about 1 to 20 minutes, laser about 50 to 300 mW)	outcome of otitis externa (otitis externa [1]; about 0.001 to 0.1 wt %, 650-680 nm for about 1 to 20 minutes, laser about 50 to 300 mW)	outcome of otitis externa (otitis externa [1]; about 0.1 wt %, 650-680 nm for about 6 to 10 minutes, laser about 80 mW)	reduction of E. coli (logs) (E. coli [2]; [7])	elimination of E. coli by photodisinfection (E. coli [2]; [8])	outcome of otitis externa, many patients (otitis externa [3]; about 0.01 wt % methylene blue by cotton swab, 665-675 nm for about 3 to 5 minutes (3-5 one minute cycles))	outcome of otitis externa, patients with severe otitis externa (otitis externa [3]; same protocol, about 2 to about 5 additional treatments over about one to two weeks)	reduction of MRSA in SEM photograph vs controlled biofilm (MRSA [4])	reduction of MRSA (logs) (MRSA [5]; [7])	elimination of MRSA by photodisinfection (MRSA [5]; [8])	elimination of E. Fecalis by photodisinfection (E. fecalis)	reduction of E. coli in SEM photograph vs controlled biofilm (E. coli [6])
Cc1cc2nc3ccc(N(C)C)cc3[s+]c2cc1N.[Cl-] [toluidine blue]	ameliorated	–	–	–	–	–	–	–	–	–	–	–
CN(C)c1ccc2nc3ccc(=[N+](C)C)cc-3sc2c1 [methylene blue]	–	ameliorated	ameliorated	at least three logs	effectively eliminated	ameliorated	also ameliorated	substantial reduction of MRSA	at least three logs	effectively eliminated	effectively eliminated	substantial reduction of E. coli
